The values that follow come from patent US6271238A, “Acetamide derivatives and protease inhibitors” (Nippon Kayaku Kabushiki Kaisha, priority 1996, dated 2001).

pIC50: −log10 of the molar value. Structures can show the parent of a compound that is named as a salt.

Holding throughout (format): biochemical
The target in test [1] is T1, Human plasmin (Homo sapiens, UniProt P00747).
T1 construct: human plasmin
As to the kind of experiment: Inhibitory activity on proteases other than chymase: human plasmin. The following applies: benzyloxycarbonyl valyl leucyl lyzyl methylcoumarylamide substrate; read-out: 50% Inhibitory concentration toward Human plasmin. The procedure: (§1) (E) Measurement of inhibitory activity on proteases other than chymase
(§2) The inhibitory activity of the present compounds on human elastase, human cathepsin G, human urokinase, human thrombin, human plasmin, and human factor Xa was determined using their corresponding synthetic substrates in the same manner as for chymase. All the above proteases were those commercially available from Boehringer Mannheim or purified by a combination of known methods. The synthetic substrates were those produced by Peptide Renkyusho. The synthetic substrates for the respective proteases are as follows.
Human plasmin Benzyloxycarbonyl valyl leucyl lyzyl
(§3) The test was conducted several times. Chymase was prepared for each test in the manner described above. The compounds examined were compounds prepared in the above-described examples.

Test [2] has as its target T2, Human thrombin (Homo sapiens, UniProt P00734).
T2 construct: human thrombin
The test is described as follows: Inhibitory activity on proteases other than chymase: human thrombin. As to the method: as §1, §2
Human thrombin Benzyloxycarbonyl asparginyl prolyl arginyl
as §3

The target in test [3] is T3, Human elastase (Homo sapiens, UniProt P08246).
T3 sequence (P08246 30-247 limits assumed): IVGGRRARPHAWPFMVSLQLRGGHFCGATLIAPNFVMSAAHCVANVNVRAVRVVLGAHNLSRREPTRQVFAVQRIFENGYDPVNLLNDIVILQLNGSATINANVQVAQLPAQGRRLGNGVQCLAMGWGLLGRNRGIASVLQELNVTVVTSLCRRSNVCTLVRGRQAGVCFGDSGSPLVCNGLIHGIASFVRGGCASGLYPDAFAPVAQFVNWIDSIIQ
The test is described as follows: Inhibitory activity on proteases other than chymase: human elastase. The settings on record: succinyl alanyl propyl alanyl methylcoumarylamide substrate; read-out: 50% Inhibitory concentration toward Human elastase. As to the method:
as §1, §2
Human elastase Succinyl alanyl propyl alanyl methylcoumarylamide
as §3

Test [4] concerns the target Human urokinase (Homo sapiens, UniProt P00749). As to the kind of experiment: Inhibitory activity on proteases other than chymase: human urokinase. The settings on record: pyridyl glycyl arginyl methylcoumarylamide substrate; read-out: 50% Inhibitory concentration toward Human urokinase. As to the method:
as §2, with “(E) Measurement of inhibitory activity on proteases other than chymase The inhibitory” for “The inhibitory”, “as follows. |Human urokinase Pyridyl glycyl arginyl methylcoumarylamide The test was conducted several times. Chymase was prepared for each test in the manner described above. The compounds examined were compounds prepared in the above-described examples.” for “as follows.”

Test [5] concerns the target T4, human chymase (Homo sapiens, UniProt P23946).
T4 construct: 60 g human tonsils were finely divided by scissors and a scalpel; from tissue; host or cells: human tonsils
T4 sequence (P23946 22-247): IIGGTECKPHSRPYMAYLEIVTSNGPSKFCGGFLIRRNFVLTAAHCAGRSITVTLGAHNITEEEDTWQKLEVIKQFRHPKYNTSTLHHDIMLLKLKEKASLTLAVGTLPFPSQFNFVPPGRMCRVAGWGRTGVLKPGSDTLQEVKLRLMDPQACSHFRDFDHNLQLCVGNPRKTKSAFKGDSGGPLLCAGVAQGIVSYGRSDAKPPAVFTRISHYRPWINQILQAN
As to the kind of experiment: Inhibitory activity on human chymase (angiotensin I as substrate). The settings on record: for IC50: substrate angiotensin I, pH 8.0, 37° C., 60 min, read-out: Human Chymase (IC50: nM), 50% inhibitory concentration. The text has this: It is known that chymase is present in tissues of various animals, and its isolation and purification methods are described in Anal. Biochem., 137, 449 (1984) and FEBS Letters, 323, 119 (1993). In the present invention, chymase was purified by the methods described in these literatures, and the present compounds were examined for inhibitory activity on chymase, inhibitory action on activation of mast cells and eosinophils, and pharmacological action in animals. Hereinafter, specific methods are described. 50 g rat tongue was finely divided by scissors and a scalpel, suspended in 0.1 M phosphate buffer (pH 8.0), and disrupted by a Polytron homogenizer for 5 minutes to prepare a crude chymase enzyme solution. […] The supernatant was applied to an octyl Sepharose 4B column (40×100 mm) previously equilibrated with 0.1 M phosphate buffer (pH 8.0) containing 2 M sodium chloride and 5% ammonium sulfate, and the protein was eluted with a linear concentration gradient of from 2 M to 0 M sodium chloride. An active fraction decomposing succinyl leucyl leucyl valyl tyrosyl methylcumarylamide (hereinafter referred to as the synthetic chymase substrate, a product of Peptide Kenkyusho) was recovered and concentrated and this product was used as a purified rat chymase in the following activity measurement. (B) Preparation of human chymase 60 g human tonsils were finely divided by scissors and a scalpel, suspended in 0.1 M phosphate buffer (pH 8.0), and A-disrupted by a Polytron homogenizer for 5 minutes to prepare a crude chymase enzyme solution. It was centrifuged at 22000×g for 30 minutes, and the precipitates were used as a chymase enzyme fraction. […] The supernatant was concentrated by an ultrafiltration membrane, then applied to […] column (6.0×300 mm), and eluted with 0.1 M phosphate buffer (pH 8.0). An active fraction decomposing the synthetic chymase substrate was recovered and concentrated and this product was used as a purified human chymase in the following activity measurement. (D) Measurement of inhibitory activity on chymase (b) Measurement using angiotensin I as substrate The inhibitory activity on the human chymase and dog chymase was measured using angiotensin I (Peptide Kenkyusho) as substrate besides the above synthetic substrate. […] After the end of the reaction, produced angiotensin II was immediately measured by high performance liquid chromatography to determine the activity of the chymase to calculate 50% inhibitory concentration (IC50: nM). The test was conducted several times. Chymase was prepared for each test in the manner described above. The compounds examined were compounds prepared in the above-described examples. […] 50% Inhibitory concentration (IC50: nM) of each compound toward rat chymase, dog […] human […] Substrate: Succinyl leucyl leucyl valyl tyrosyl methylcoumarylamide (for rat […] angiotensin I (for human and dog chymase)

Test [6] has as its target T5, Human cathepsin G (Homo sapiens, UniProt P08311).
T5 sequence (P08311 21-255): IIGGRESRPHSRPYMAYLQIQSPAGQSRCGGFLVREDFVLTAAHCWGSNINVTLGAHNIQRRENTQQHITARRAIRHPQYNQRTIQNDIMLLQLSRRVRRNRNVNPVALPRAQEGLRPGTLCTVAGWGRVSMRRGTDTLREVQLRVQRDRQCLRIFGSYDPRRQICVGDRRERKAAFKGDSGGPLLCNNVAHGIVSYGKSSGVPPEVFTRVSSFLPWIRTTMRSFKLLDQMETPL
The test is described as follows: Inhibitory activity on proteases other than chymase: human cathepsin G. The settings on record: succinyl alanyl alanyl propyl phenylmethylcoumarylamide substrate; read-out: 50% Inhibitory concentration toward Human cathepsin G. The procedure: as §1, §2
Human cathepsin G Succinyl alanyl alanyl propyl phenylmethyl-
as §3

For test [7], the system named is other human proteases. As to the kind of experiment: Inhibitory activity on other human proteases (summary). As to the method: as §1, §2, §3

T1 sequence (P00747 581-810 limits assumed): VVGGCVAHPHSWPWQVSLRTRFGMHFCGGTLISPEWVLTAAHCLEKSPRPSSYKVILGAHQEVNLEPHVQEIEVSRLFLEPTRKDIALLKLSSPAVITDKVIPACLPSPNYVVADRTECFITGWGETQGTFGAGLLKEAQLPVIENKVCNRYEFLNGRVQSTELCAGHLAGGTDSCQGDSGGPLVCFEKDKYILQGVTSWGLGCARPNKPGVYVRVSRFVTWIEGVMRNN
T1 sequence (P00747 97-580 partner limits assumed): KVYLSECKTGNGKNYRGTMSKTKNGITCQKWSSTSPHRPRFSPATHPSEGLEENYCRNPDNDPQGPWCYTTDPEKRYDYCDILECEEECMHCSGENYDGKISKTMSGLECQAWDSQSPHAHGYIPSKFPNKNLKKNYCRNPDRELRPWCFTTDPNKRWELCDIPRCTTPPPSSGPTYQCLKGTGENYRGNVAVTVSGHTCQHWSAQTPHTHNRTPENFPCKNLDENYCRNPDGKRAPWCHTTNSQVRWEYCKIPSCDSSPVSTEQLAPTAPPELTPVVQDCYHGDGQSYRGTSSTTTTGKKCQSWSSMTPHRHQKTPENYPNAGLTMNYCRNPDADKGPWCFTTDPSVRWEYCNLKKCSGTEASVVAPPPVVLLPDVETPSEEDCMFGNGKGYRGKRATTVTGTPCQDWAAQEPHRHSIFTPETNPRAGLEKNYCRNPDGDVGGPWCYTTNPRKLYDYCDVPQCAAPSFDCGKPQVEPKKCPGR

Take `Nc1cnc(-c2ccccc2)n(CC(=O)NC(Cc2ccccc2)C(=O)C(=O)CCCc2ccccc2)c1=O` (centres unmarked) [Compound 40]: the pIC50 was below 5.00 in test [1]; below 5.00 in test [2]; 5.72 in test [3]; below 5.00 in test [4]; below 5.00 in test [6]. For the same compound, the IC50 in test [5] turned out to be 190 nM.
For the compound `CCCCC(=O)C(=O)C(Cc1ccccc1)NC(=O)Cn1c(-c2ccccc2)ncc(N)c1=O` (centres unmarked) [Compound 44], the IC50 in test [5] is 146 nM.
As for `CC(=O)C(=O)C(Cc1cccc(F)c1)NC(=O)Cn1c(-c2ccccc2)ncc(N)c1=O` (centres unmarked) [Compound 52, 2-(5-Amino-6-oxo-2-phenyl-1,6-dihydropyrimidine-1-yl)-N-{1-(3-fluorophenyl)methyl-2,3-dioxo}butylacetamide], the pIC50 was below 5.00 in test [1]; below 5.00 in test [2]; below 5.00 in test [3]; below 5.00 in test [4]; 6.46 in test [6]. Further, the IC50 in test [5] stood at 120 nM.
As to `CCOC(=O)CCCC(=O)C(=O)C(Cc1cccc(F)c1)NC(=O)Cn1c(-c2ccccc2)ncc(N)c1=O` (centres unmarked) [Compound 54], in test [7], the “inhibitory activity on other human proteases, in words” value is recorded as “no inhibitory activity on other human proteases”. In test [5], the “inhibitory activity on human chymase, in words” value is on record as “strong inhibitory activity on human chymase” and the IC50 turned out to be 36 nM.
Consider `CC(C)(C)OC(=O)Nc1cnc(-c2ccccc2)n(CC(=O)NC(Cc2ccccc2)C(=O)C(=O)CCCn2ccccc2=O)c1=O` (centres unmarked) [Compound 72, 2-(5-t-Butyloxycarbonylamino-6-oxo-2-phenyl-1,6-dihydropyrimidine-1-yl)-N-{2,3-dioxo-6-(2-oxo-1,2-dihydropyridine-1-yl)-1-phenylmethyl}hexylacetamide], for which the pIC50 in test [1] is below 5.00; in test [2], below 5.00; in test [3] it was 5.26; in test [4] it was below 5.00; in test [6] it was 6.27. Also, the “inhibitory activity on other human proteases, in words” value in test [7] is listed as “no inhibitory activity on other human proteases”. The “inhibitory activity on human chymase, in words” value in test [5] was “strong inhibitory activity on human chymase”. Besides, in test [5], the IC50 was determined as 90 nM.
Take `Nc1cnc(-c2ccccc2)n(CC(=O)NC(Cc2ccccc2)C(=O)C(=O)CCCn2ccccc2=O)c1=O` (centres unmarked) [Compound 73, 2-(5-Amino-6-oxo-2-phenyl-1,6-dihydropyrimidine-1-yl)-N-{2,3-dioxo-1-phenylmethyl-6-(2-oxo-1,2-dihydropyridine-1-yl)}hexylacetamide hydrochloride]: in test [7], the “inhibitory activity on other human proteases, in words” value is listed as “no inhibitory activity on other human proteases”. In test [5], the “inhibitory activity on human chymase, in words” value is listed as “strong inhibitory activity on human chymase” and the IC50 was 46 nM.
As for `CC(C)(C)OC(=O)Nc1cnc(-c2ccccc2)n(CC(=O)NC(Cc2ccccc2)C(=O)C(=O)CCCOc2ccccn2)c1=O` (centres unmarked) [Compound 74, 2-(5-t-Butyloxycarbonylamino-6-oxo-2-phenyl-1,6-dihydropyrimidine-1-yl)-N-{2,3-dioxo-6-(2-pyridyloxy)-1-phenylmethyl}hexylacetamide], the pIC50 is below 5.00 in test [1]; below 5.00 in test [2]; 5.22 in test [3]; below 5.00 in test [4]; 7.05 in test [6]. The “inhibitory activity on other human proteases, in words” value in test [7] was “no inhibitory activity on other human proteases”. In addition, in test [5], the “inhibitory activity on human chymase, in words” value was “strong inhibitory activity on human chymase”. Moreover, the IC50 in test [5] was 11 nM.
Consider `O=CNc1cnc(-c2ccccc2)n(CC(=O)NC(Cc2ccccc2)C(=O)C(=O)CCCOc2ccccn2)c1=O` (centres unmarked) [Compound 79, 2-(5-Formylamino-6-oxo-2-phenyl-1,6-dihydropyrimidine-1-yl)-N-{2,3-dioxo-1-phenylmethyl-6-(2-pyridyloxy)}hexylacetamide], for which the pIC50 was below 5.00 in test [1]; below 5.00 in test [2]; below 5.00 in test [3]; below 5.00 in test [4]; 6.38 in test [6]. Moreover, the “inhibitory activity on other human proteases, in words” value in test [7] is listed as “no inhibitory activity on other human proteases”. Further, the “inhibitory activity on human chymase, in words” value in test [5] is given as “strong inhibitory activity on human chymase”. Besides, the IC50 in test [5] is 2.4 nM.
As to `CC(=O)Nc1cnc(-c2ccccc2)n(CC(=O)NC(Cc2ccccc2)C(=O)C(=O)CCCOc2ccccn2)c1=O` (centres unmarked) [Compound 80, 2-(5-Acetylamino-6-oxo-2-phenyl-1,6-dihydropyrimidine1-yl)-N-{2,3-dioxo-1-phenylmethyl-6-(-2-pyridyloxy)}hexyl-acetamide], the pIC50 in test [1] is below 5.00; in test [2], below 5.00; in test [3] it was 5.68; in test [4] it was below 5.00; in test [6], 7.74. Besides, in test [7], the “inhibitory activity on other human proteases, in words” value is reported as “no inhibitory activity on other human proteases”. In test [5], the “inhibitory activity on human chymase, in words” value was “strong inhibitory activity on human chymase”. The IC50 in test [5] came out at 0.9 nM.
Take `O=C(Cn1c(-c2ccccc2)ncc(NS(=O)(=O)NCc2ccccc2)c1=O)NC(Cc1ccccc1)C(=O)C(=O)CCCOc1ccccn1` (centres unmarked) [Compound 82, 2-(5-Benzylaminosulfonylamino-6-oxo-2-phenyl-1,6-dihydropyrimidine-1-yl)-N-{2,3-dioxo-1-phenylmethyl-6-(2-pyridyloxy)}hexylacetamide]: the pIC50 in test [1] is below 5.00; in test [2], below 5.00; in test [3], 5.40; in test [4] it was below 5.00; in test [6] it was 7.72. Also, the “inhibitory activity on other human proteases, in words” value in test [7] is given as “no inhibitory activity on other human proteases”. Also, the “inhibitory activity on human chymase, in words” value in test [5] is reported as “strong inhibitory activity on human chymase”. In addition, the IC50 in test [5] is 0.74 nM.
